From ChEMBL document CHEMBL3886170, “Pyrrolo[3,2-c]pyridine tropomyosin-related kinase inhibitors” (2015)

What follows are compounds tested against High affinity nerve growth factor receptor (Homo sapiens, UniProt P04629) (assay: HTRF Assay: Isolated TRK Enzyme assays use the HTRF KinEASE-TK kit (Cisbio Cat#62TK0PEJ) with recombinant His-tagged cytoplasmic domains of each TRK receptor sourced from Invitrogen (see table below). […] A standard curve using the compound of Example 135 disclosed in WO2005/116035 of 150 uM is also prepared on each test plate. High percentage effect (HPE) is defined by 150 uM.).
Chain of High affinity nerve growth factor receptor (P04629 whole entry, the tested form may be a part): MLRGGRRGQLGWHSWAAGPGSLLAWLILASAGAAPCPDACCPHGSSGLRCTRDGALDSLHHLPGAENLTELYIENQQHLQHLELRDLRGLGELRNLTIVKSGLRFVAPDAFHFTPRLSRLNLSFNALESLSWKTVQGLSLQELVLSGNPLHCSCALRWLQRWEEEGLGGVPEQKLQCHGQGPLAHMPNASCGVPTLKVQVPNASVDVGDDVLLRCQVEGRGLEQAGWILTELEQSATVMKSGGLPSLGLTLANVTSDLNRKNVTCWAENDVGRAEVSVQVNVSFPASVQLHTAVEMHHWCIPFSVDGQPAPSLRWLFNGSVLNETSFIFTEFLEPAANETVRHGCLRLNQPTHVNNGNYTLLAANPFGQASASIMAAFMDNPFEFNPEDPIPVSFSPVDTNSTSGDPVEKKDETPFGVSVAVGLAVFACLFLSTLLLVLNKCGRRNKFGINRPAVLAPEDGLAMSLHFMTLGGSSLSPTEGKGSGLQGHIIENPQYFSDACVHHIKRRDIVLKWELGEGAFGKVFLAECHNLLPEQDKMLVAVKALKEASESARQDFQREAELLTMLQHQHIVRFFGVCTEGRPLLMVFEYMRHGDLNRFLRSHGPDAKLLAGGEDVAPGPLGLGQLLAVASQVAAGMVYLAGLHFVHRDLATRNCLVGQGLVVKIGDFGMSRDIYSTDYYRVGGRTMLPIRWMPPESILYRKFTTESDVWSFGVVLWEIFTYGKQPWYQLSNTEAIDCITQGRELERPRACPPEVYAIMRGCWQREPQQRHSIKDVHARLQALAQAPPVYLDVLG

| Structure (SMILES) | IC50 |
| --- | --- |
| CC(C)(CO)n1cc(C(=O)c2cncc(NC(=O)Cc3ccc(Cl)cc3)c2)c2cncc(F)c21 | 6.53 nM |
| CC(C)(CO)n1cc(C(=O)c2cc(NC(=O)Cn3cc(C(F)(F)F)nn3)ccn2)c2cnccc21 | 79.3 nM |
| CC(C)(CO)n1cc(C(=O)c2cncc(NC(=O)Cn3cc(C4CC4)nn3)c2)c2cnccc21 | 12.4 nM |
| CC(C)(CO)n1cc(C(=O)c2cncc(NC(=O)Cc3ccc(C#N)cc3)c2)c2cnccc21 | 9.54 nM |
